In patent publication US20150291625A1 (PFIZER INC., priority 2012, published 2015):
“And” between values parts separate entries of the source, which are not always exact repeats. Identical values can stand only once. Counter-ions that a name gives are not always drawn.

Legend:
D1 [1] = biological target: T1, D1 (Homo sapiens, UniProt P21728); assay: D1 cAMP HTRF assay (HEK293T/hD1#1 stable cell line); type: cell-based; parameters: expressed in transfected cells
Text: This assay was used to determine the ability of a test compound to agonize (including partially agonize) D1. A Mab anti-cAMP labeled Cryptate visualizes the tracer. […] The signal, therefore, is inversely proportional to the concentration of cAMP in the sample.
The cAMP Dynamic kit was obtained from Cisbio International (Cisbio 62AM4PEJ). Multidrop Combi (Thermo Scientific) was used for assay additions. Envision (PerkinElmer) reader was used to read HTRF.
A HEK293T/hD1#1 stable cell line was constructed internally (Pfizer Ann Arbor). […] One mL aliquots of the cells were made in Cryo-vials and frozen at −80° C. for future use in the D1 HTRF assay.
Frozen cells were quickly thawed, re-suspended in 50 mL warm media and allowed to sit for 5 min prior to centrifugation (1000 rpm) at room temperature. Media was removed and cell pellet was re-suspended in PBS/0.5 μM IBMX generating 2e5 cells/mL. […] Cells and compounds were incubated at room temperature for 30 min. Working solutions of cAMP-D2 and anti-cAMP-cryptate were prepared according to Cisbio instructions. Using Multidrop, 5 μL cAMP-D2 working solution was added to the assay plate containing the test compound and cells. Using Multidrop, 5 μL anti-cAMP-cryptate working solutions was added to assay plate containing test compound, cells and cAMP-D2. Assay plate was incubated for 1 hour at room temperature. Assay plate was read on Envision plate reader using Cisbio recommended settings. A cAMP standard curve was generated using cAMP stock solution provided in the Cisbio kit.
Data analysis was done using computer software. Percent effects were calculated from the compound controls. Ratio EC50 was determined using the raw ratio data from the Envision reader. The cAMP standard curve was used in an analysis program to determine cAMP concentrations from raw ratio data. cAMP EC50 was determined using the calculated cAMP data.

D1 [2] = biological target: T1, D1; assay: Human D1 receptor binding assay ([3H]-SCH23390 competition); settings: Human D1 Receptor Binding, Ki (nM), Geometric mean of 2-4 determinations, a: >=5 determinations, d: single determination

T1 sequence (P21728 whole entry): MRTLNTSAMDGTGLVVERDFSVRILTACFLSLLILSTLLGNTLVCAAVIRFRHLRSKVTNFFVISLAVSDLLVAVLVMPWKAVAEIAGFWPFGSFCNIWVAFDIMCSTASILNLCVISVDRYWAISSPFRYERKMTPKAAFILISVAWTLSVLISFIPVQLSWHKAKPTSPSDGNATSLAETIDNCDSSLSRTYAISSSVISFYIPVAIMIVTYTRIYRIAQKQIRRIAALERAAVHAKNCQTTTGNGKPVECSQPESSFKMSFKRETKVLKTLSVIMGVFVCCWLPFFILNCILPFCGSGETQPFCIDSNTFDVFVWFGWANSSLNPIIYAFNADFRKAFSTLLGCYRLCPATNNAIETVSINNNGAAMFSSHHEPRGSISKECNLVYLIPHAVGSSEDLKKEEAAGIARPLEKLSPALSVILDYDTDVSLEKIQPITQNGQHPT

Compound	EC50 (D1 [1])	Ki (D1 [2]) [nM]
CC(NCc1cc(Oc2nccc3occc23)ccc1-c1cccc2nccn12)c1cncs1 (centres unmarked) [Example 49, N-[5-(furo[3,2-c]pyridin-4-yloxy)-2-(imidazo[1,2-a]pyridin-5-yl)benzyl]-1-(1,3-thiazol-5-yl)ethanamine, trifluoroacetate salt]	3680 nM	121
Cc1cc(Oc2nccc3occc23)ccc1-c1nc(N)cnc1C [Example 53, 6-[4-(furo[3,2-c]pyridin-4-yloxy)-2-methylphenyl]-5-methylpyrazin-2-amine, trifluoroacetate salt]	953 nM	173
Cc1cc(N(C)c2nccc3occc23)ccc1-c1cccc2nccn12 [Example 55, N-[4-(imidazo[1,2-a]pyridin-5-yl)-3-methylphenyl]-N-methylfuro[3,2-c]pyridin-4-amine]	> 29900 nM	244
Cc1cc(Oc2nccc3occc23)ccc1-c1ccc(N)nc1C [Example 56, 5-[4-(furo[3,2-c]pyridin-4-yloxy)-2-methylphenyl]-6-methylpyridin-2-amine]	633 nM and 435 nM	98.7
Cc1cc(Oc2nccc3occc23)ccc1-c1cncnc1C [Example 58, 4-[3-methyl-4-(4-methylpyrimidin-5-yl)phenoxy]furo[3,2-c]pyridine]	900 nM and 1110 nM	160
Cc1cc(Oc2nccc3occc23)ccc1-c1cccc2[nH]c(=O)ccc12 [Example 59, 5-[4-(furo[3,2-c]pyridin-4-yloxy)-2-methylphenyl]quinolin-2(1H)-one]	1010 nM and 1150 nM	103
COc1ccc(-c2ccc(Oc3nccc4occc34)cc2C)c(C)n1 [Example 60, 4-[4-(6-methoxy-2-methylpyridin-3-yl)-3-methylphenoxy]furo[3,2-c]pyridine, trifluoroacetate salt]	2910 nM and 1040 nM	178
Cc1nccnc1-c1ccc(Oc2nccc3occc23)cc1OCCCN(C)C [Example 61, 3-[5-(furo[3,2-c]pyridin-4-yloxy)-2-(3-methylpyrazin-2-yl)phenoxy]-N,N-dimethylpropan-1-amine, formate salt]	1110 nM and 811 nM	228
Cc1cc(Oc2nccc3occc23)ccc1-c1c(C)ncnc1N [Example 63, 5-[4-(furo[3,2-c]pyridin-4-yloxy)-2-methylphenyl]-6-methylpyrimidin-4-amine]	1350 nM and 843 nM	210
Cc1nccnc1-c1ccc(Oc2nccc3occc23)cc1OCc1c(C)noc1C [Example 66, 4-{3-[(3,5-dimethyl-1,2-oxazol-4-yl)methoxy]-4-(3-methylpyrazin-2-yl)phenoxy}furo[3,2-c]pyridine, formate salt]	737 nM	85.4
Cc1cccnc1COc1cc(Oc2nccc3occc23)ccc1-c1nccnc1C [Example 68, 4-{4-(3-methylpyrazin-2-yl)-3-[(3-methylpyridin-2-yl)methoxy]phenoxy}furo[3,2-c]pyridine, formate salt]	1480 nM	154
Cc1ncnc(C)c1-c1ccc(Oc2nccc3occc23)cc1F [Example 69, 4-[4-(4,6-dimethylpyrimidin-5-yl)-3-fluorophenoxy]furo[3,2-c]pyridine]	201 nM and 203 nM	77.7
Cc1ncnc(C#N)c1-c1ccc(Oc2nccc3occc23)cc1F [Example 70, 5-[2-fluoro-4-(furo[3,2-c]pyridin-4-yloxy)phenyl]-6-methylpyrimidine-4-carbonitrile]	424 nM and 1020 nM	124
Cc1ncnc(C)c1-c1ccc(Oc2nccc3occc23)cc1O [Example 72, 2-(4,6-dimethylpyrimidin-5-yl)-5-(furo[3,2-c]pyridin-4-yloxy)phenol]	989 nM	91.4
COc1ncnc(C)c1-c1ccc(Oc2nccc3occc23)cc1F [Example 76, 4-[3-fluoro-4-(4-methoxy-6-methylpyrimidin-5-yl)phenoxy]furo[3,2-c]pyridine]	903 nM and 2170 nM	139
Cc1nc(O)nc(C)c1-c1ccc(Oc2nccc3occc23)cc1 [Example 79, 5-[4-(furo[3,2-c]pyridin-4-yloxy)phenyl]-4,6-dimethylpyrimidin-2-ol]	2550 nM and 1680 nM	140
CNc1ncnc(C)c1-c1ccc(Oc2nccc3occc23)cc1C [Example 81, 5-[4-(furo[3,2-c]pyridin-4-yloxy)-2-methylphenyl]-N,6-dimethylpyrimidin-4-amine]	1770 nM	270
Cc1cc(Oc2nccc3occc23)ccc1-c1c(C)nc(N)nc1C#N [Example 84, 2-amino-5-[4-(furo[3,2-c]pyridin-4-yloxy)-2-methylphenyl]-6-methylpyrimidine-4-carbonitrile]	360 nM	116
Cc1cc(Oc2nccc3occc23)ccc1-c1c(C)nc2cnccn12 [Example 85, 3-[4-(furo[3,2-c]pyridin-4-yloxy)-2-methylphenyl]-2-methylimidazo[1,2-a]pyrazine]	1120 nM and 4880 nM	75.3
Cc1cc(Oc2nccc3occc23)ccc1-c1cc(N)cnc1C [Example 86, 5-[4-(furo[3,2-c]pyridin-4-yloxy)-2-methylphenyl]-6-methylpyridin-3-amine]	833 nM and 4870 nM	113

Stronger by Ki (D1 [2]), values ahead:

EC50 (D1 [1])	Ki (D1 [2]) [nM]	Compound
1130 nM	55.1	CN(Cc1ccccn1)Cc1cc(Oc2nccc3occc23)ccc1-c1cccc2nccn12 [Example 50, 1-[5-(furo[3,2-c]pyridin-4-yloxy)-2-(imidazo[1,2-a]pyridin-5-yl)phenyl]-N-methyl-N-(pyridin-2-ylmethyl)methanamine, trifluoroacetate salt]
799 nM and 1220 nM	61.7	COc1cc(Oc2nccc3occc23)ccc1-c1c(C)ccnc1C#N [Example 51, 3-[4-(furo[3,2-c]pyridin-4-yloxy)-2-methoxyphenyl]-4-methylpyridine-2-carbonitrile, trifluoroacetate salt]
463 nM	53	Cc1cc(Oc2nccc3occc23)ccc1-c1cccnc1C [Example 52, 4-[3-methyl-4-(2-methylpyridin-3-yl)phenoxy]furo[3,2-c]pyridine]
243 nM	10.2	FC(F)(F)c1cc(Oc2nccc3occc23)ccc1-c1cccc2nccn12 [Example 54, 4-[4-(imidazo[1,2-a]pyridin-5-yl)-3-(trifluoromethyl)phenoxy]furo[3,2-c]pyridine]
116 nM	17.4	Cc1ncc2nccn2c1-c1ccc(Oc2nccc3occc23)cc1O [Example 57, 5-(furo[3,2-c]pyridin-4-yloxy)-2-(6-methylimidazo[1,2-a]pyrazin-5-yl)phenol]
134 nM	12.1	CCc1cc(Oc2nccc3occc23)ccc1-c1c(C)ncc2nccn12 [Example 64, 5-[2-ethyl-4-(furo[3,2-c]pyridin-4-yloxy)phenyl]-6-methylimidazo[1,2-a]pyrazine]
193 nM and 300 nM	61.1	Cc1ncc2nccn2c1-c1ccc(Oc2nccc3occc23)cc1F [Example 65, 5-[2-fluoro-4-(furo[3,2-c]pyridin-4-yloxy)phenyl]-6-methylimidazo[1,2-a]pyrazine]
298 nM and 965 nM	50.5	COc1cc(Oc2nccc3occc23)ccc1-c1c(C)ncnc1C [Example 71, 4-[4-(4,6-dimethylpyrimidin-5-yl)-3-methoxyphenoxy]furo[3,2-c]pyridine]
748 nM and 966 nM	37.7	Cc1ncccc1-c1ccc(Oc2nccc3occc23)cc1OCCCN(C)C [Example 73, 3-[5-(furo[3,2-c]pyridin-4-yloxy)-2-(2-methylpyridin-3-yl)phenoxy]-N,N-dimethylpropan-1-amine, formate salt]
364 nM	21.6	Cc1cc(Oc2nccc3occc23)ccc1-c1c(C)nc(N)nc1C [Example 75, 5-[4-(furo[3,2-c]pyridin-4-yloxy)-2-methylphenyl]-4,6-dimethylpyrimidin-2-amine]
200 nM and 674 nM	45.6	Cc1ncnc(C)c1-c1ccc(Oc2nccc3occc23)cc1 [Example 77, 4-[4-(4,6-dimethylpyrimidin-5-yl)phenoxy]furo[3,2-c]pyridine]
885 nM and 1230 nM	48.3	CCc1noc(COc2cc(Oc3nccc4occc34)ccc2-c2cccnc2C)n1 [Example 78, 4-{3-[(3-ethyl-1,2,4-oxadiazol-5-yl)methoxy]-4-(2-methylpyridin-3-yl)phenoxy}furo[3,2-c]pyridine]
1200 nM and 987 nM	6.13	Cc1cc(Oc2nccc3occc23)ccc1-c1c(C)ncc2nc(C(F)(F)F)cn12 [Example 80, 5-[4-(furo[3,2-c]pyridin-4-yloxy)-2-methylphenyl]-6-methyl-2-(trifluoromethyl)imidazo[1,2-a]pyrazine]
600 nM and 482 nM	22.5	Cc1cc(Oc2nccc3occc23)ccc1-c1c(C)ncnc1N(C)C [Example 87, 5-[4-(furo[3,2-c]pyridin-4-yloxy)-2-methylphenyl]-N,N,6-trimethylpyrimidin-4-amine]
